Columns and labels:
Assay in all cases: differential drug sensitivity score (dDSS) relative to sarcoma reference cohort mean DSS (DSS units (0-100 scale difference)); higher = more selective sensitivity than reference sarcomas
Details in all cases: exposure time: 72 h; concentration range: 10-10000 nM
[1] = tested on: CDS-ZH001-2 (patient-derived CIC-DUX4 sarcoma tumoroid)
Protocol: (§1)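 Drug response profiling of patient-derived Ewing sarcoma and CIC::DUX4 sarcoma tumoroid models (or cells tested directly after isolation from the tumor, 'direct'). The DSS is the normalised AUC (0-100); dDSS is the sample DSS minus the mean DSS of a 34-sarcoma reference cohort profiled in the same lab.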

[2] = tested on: CDS-ZH001 (patient-derived CIC-DUX4 sarcoma tumoroid)
Protocol: as §1

[3] = tested on: CDS-ZH002 direct (CIC-DUX4 sarcoma cells right after isolation)
Protocol: as §1

[4] = tested on: CDS-ZH002 (patient-derived CIC-DUX4 sarcoma tumoroid)
Protocol: as §1

[5] = tested on: CDS-ZH003 (patient-derived CIC-DUX4 sarcoma tumoroid)
Protocol: as §1

[6] = tested on: ES-ZH001 (patient-derived Ewing sarcoma tumoroid)
Protocol: as §1

[7] = tested on: ES-ZH002 (patient-derived Ewing sarcoma tumoroid)
Protocol: as §1

[8] = tested on: ES-ZH004 (patient-derived Ewing sarcoma tumoroid)
Protocol: as §1

[9] = tested on: ES-ZH007 (patient-derived Ewing sarcoma tumoroid)
Protocol: as §1

[10] = tested on: ES-ZH008 (patient-derived Ewing sarcoma tumoroid)
Protocol: as §1

[11] = tested on: ES-ZH009 (patient-derived Ewing sarcoma tumoroid)
Protocol: as §1

[12] = tested on: ES-ZH016 direct (Ewing sarcoma cells right after isolation)
Protocol: as §1

[13] = tested on: ES-ZH016 (patient-derived Ewing sarcoma tumoroid)
Protocol: as §1

SMILES	differential drug sensitivity score [1]	differential drug sensitivity score [2]	differential drug sensitivity score [3]	differential drug sensitivity score [4]	differential drug sensitivity score [5]	differential drug sensitivity score [6]	differential drug sensitivity score [7]	differential drug sensitivity score [8]	differential drug sensitivity score [9]	differential drug sensitivity score [10]	differential drug sensitivity score [11]	differential drug sensitivity score [12]	differential drug sensitivity score [13]
CCn1c(-c2nonc2N)nc2c(C#CC(C)(C)O)ncc(OC[C@H]3CCCNC3)c21	-9.5	5.1	-3.1	-9.5	-9.5	0.5	13	10.8	4.4	15.5	5.5	-1	1.1
N#CC[C@H](C1CCCC1)n1cc(-c2ncnc3[nH]ccc23)cn1 [Ruxolitinib]	-0.1	0.9	-0.8	-0.6	1.3	-0.8	-0.8	-0.8	-0.8	-0.8	4.4	2.7	1.7
Nc1ccccc1NC(=O)c1ccc(CNc2nccc(-c3cccnc3)n2)cc1 [Mocetinostat]	1.5	-3.3	-0.9	-2.7	-9	0.8	2.4	8.4	2.6	7.1	1.8	7.8	1.4
O=NN(CCCl)C(=O)NCCCl [Carmustine]	-0.5	-1.3	-1.2	-1.2	-1.3	2.6	7.3	1.6	-1.3	1.4	-1.3	2.1	1.1
C[C@@H]1C[C@H]2[C@@H]3CCC4=CC(=O)C=C[C@]4(C)[C@@]3(F)[C@@H](O)C[C@]2(C)[C@@]1(O)C(=O)CO [Dexamethasone]	-0.5	-0.5	0.6	-0.5	-0.5	-0.5	-0.5	-0.5	-0.5	-0.5	-0.5	-0.5	-0.5
CCc1nc(C(N)=O)c(Nc2ccc(N3CCC(N4CCN(C)CC4)CC3)c(OC)c2)nc1NC1CCOCC1 [Gilteritinib]	8	7.4	1.6	-1.4	10.4	1.1	16	4.2	4.2	10.2	10.1	9.4	0.8
C[C@]1(O)C[C@@H](c2nc(-c3ccc4ccc(-c5ccccc5)nc4c3)c3c(N)nccn32)C1 [Linsitinib]	5.7	3.8	-5.9	-5	5.7	0.8	15.2	3.2	3	4.9	3.7	3.2	6.8
O=C(Nc1c[nH]nc1-c1nc2ccc(CN3CCOCC3)cc2[nH]1)NC1CC1 [AT9283]	7	-1.2	-0.7	-3.6	-2	24.4	10.8	4	6.1	18.4	24.5	14.2	10.8
Cc1ccc(C(=O)Nc2ccc(CN3CCN(C)CC3)c(C(F)(F)F)c2)cc1C#Cc1cnc2cccnn12 [Ponatinib]	-3.9	-6.2	-3.1	-3.6	-0.9	5.6	10	0.5	-2.6	3.2	0.2	7.8	-3.6
Cn1cnc2c(F)c(Nc3ccc(Br)cc3Cl)c(C(=O)NOCCO)cc21 [Selumetinib]	-2	-2	-2	-2	2.5	-2	-2	-1.9	-2	5.1	-2	-2	-2
CCCN(CCC)C(=O)C1=Cc2ccc(-c3ccc(C(=O)N4CCCC4)cc3)cc2N=C(N)C1 [Motolimod]	4.9	-2	2.1	-1.9	-3.1	1.9	1.9	-3.1	-2.9	0.1	-1.5	0.4	0.2
Nc1nc(Cl)nc2c1ncn2[C@@H]1O[C@H](CO)[C@@H](O)[C@@H]1F [Clofarabine]	-1.8	-12	-4.3	-4.3	-4.8	17.7	20.2	4.8	19	3.6	3.9	8.4	15.7
O=C(O)CNC(=O)c1c(O)c2ccccc2n(Cc2ccccc2)c1=O [IOX2]	-1.5	-1.5	1	-1.3	3.7	3.2	5.1	0.7	-0.7	3.7	-1.5	-1.5	-1.5
